Values of other authors in US20040019096A1, “Novel formulations of carvedilol” (priority 2003, published 2004).

Settings: immediate release formulation

absorption following oral administration: rapidly and extensively absorbed
terminal elimination half-life (oral administration): 7 to 10 h
Compound: COc1ccccc1OCCNCC(O)COc1cccc2[nH]c3ccccc3c12 (centres unmarked) [carvedilol]
